What was measured:
[1] = Stability of DNCB in a dissolved state; format: physicochemical; details: even more unstable at high temperatures
[2] = cited from earlier work

O=[N+]([O-])c1ccc(Cl)c([N+](=O)[O-])c1 [DNCB, 1-chloro-2,4-dinitrobenzene]
stability in a dissolved state [1]: unstable in a dissolved state
adverse events of DNCB ([2]; reports to date): have not been any reports to date of cases of life-threatening adverse events
carcinogenicity ([2]; research conducted in the 1950s in the United States): not carcinogenic

From patent publication US20040109825A1, “Topical patch preparation kit containing a delayed-type hypersensitivity inducer” (priority 2002, published 2004)
